From ChEMBL document CHEMBL1128690, “Design of potent non-thiourea H3-receptor histamine antagonists” (J Med Chem, 1995) come the findings set out here.

T1 sequence (Q9QYN8 whole entry): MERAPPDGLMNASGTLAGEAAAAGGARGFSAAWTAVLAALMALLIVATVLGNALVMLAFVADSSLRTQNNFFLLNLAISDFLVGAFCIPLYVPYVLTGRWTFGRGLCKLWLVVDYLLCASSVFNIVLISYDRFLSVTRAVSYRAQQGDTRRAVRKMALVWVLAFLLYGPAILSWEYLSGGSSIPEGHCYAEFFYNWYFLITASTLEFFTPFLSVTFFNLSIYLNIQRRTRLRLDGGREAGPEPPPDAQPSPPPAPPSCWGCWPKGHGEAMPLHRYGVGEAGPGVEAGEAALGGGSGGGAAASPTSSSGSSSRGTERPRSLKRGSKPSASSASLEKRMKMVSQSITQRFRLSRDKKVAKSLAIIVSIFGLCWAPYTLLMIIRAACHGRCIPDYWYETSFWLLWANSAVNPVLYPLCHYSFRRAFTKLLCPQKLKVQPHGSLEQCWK

The first test concerns the target T1, Histamine H3 receptor (Rattus norvegicus, UniProt Q9QYN8). In words: The compound was tested in vitro for antagonistic activity against H3-receptor in the rat cerebral cortex; Not active (tested up to 1000 nM). The format is functional, tissue-based.
Regarding `S=C(NCCCn1ccnc1)NC1CCCCC1`, the inhibitory constant (Ki) result is listed as “Not Active”.

In another test the target is T1, Histamine H3 receptor. Kind of test: In vitro antagonism of the histamine H3-receptor in the rat cerebral cortex. The format is functional, tissue-based.
`FC(F)(F)c1ccc(N2CCC(c3cnc[nH]3)CC2)nc1` came in with a Ki of 42 nM.

In turn, `O=[N+]([O-])c1ccc(NCCCc2c[nH]cn2)nc1` registered a Ki of 170 nM. Against the preceding molecule, the Ki is about 4-fold higher.

`O=[N+]([O-])c1ccc(SCc2c[nH]cn2)nc1` returned a Ki of around 600 nM.

Regarding `c1cnc(NCCc2c[nH]cn2)cn1`, the Ki stood at 200 nM.

Consider `COC(=O)c1ccc(NCCc2cnc[nH]2)nc1`, for which the Ki turned out to be 42 nM. Compared with the last molecule, the Ki is about 4.8-fold lower.

For `c1c[nH]c(SCCc2cnc[nH]2)n1`, the affinity, expressed as Ki, was 400 nM. Compared with the last molecule, the Ki is about 9.5-fold higher.

The molecule `O=[N+]([O-])c1cc[n+]([O-])c(NCCc2c[nH]cn2)c1` registered a Ki of 53 nM.

`c1ccc(CCNc2ncccn2)nc1`: the Ki was above 10000 nM.

The molecule `O=[N+]([O-])c1cccnc1NCCc1c[nH]cn1` showed a Ki of 240 nM. In other words, the sub-micromolar range.

For `S=C(NCCc1c[nH]cn1)NC1CCCCC1`, the Ki is around 200 nM.

In turn, `c1csc(NCCc2cnc[nH]2)n1` had a Ki of 340 nM.

For the molecule `c1ccc(SCCc2cnc[nH]2)nc1`, the inhibitory constant (Ki) came out at 92 nM.

`FC(F)(F)c1ccc(NCCc2cnc[nH]2)nc1`: the Ki is 17 nM. Compared with the last molecule, the Ki is about 5.4-fold lower.

`O=[N+]([O-])c1ccc(NCCc2c[nH]cn2)nc1` gave a Ki of 29 nM.

`c1ccc(NCCc2c[nH]cn2)nc1` registered an inhibition constant Ki of 200 nM.

As to `O=[N+]([O-])c1ccc(NCCc2ccccn2)nc1`, the Ki was around 1000 nM.

Molecule `Clc1cc(NCCc2cnc[nH]2)ccn1` yielded a Ki of 160 nM.

Take `S=C(NCCSCc1c[nH]cn1)NC1CCCCC1`: the Ki is around 500 nM.

Regarding `S=C(NC1CCCCC1)N1CCC(c2cnc[nH]2)CC1` [THIOPERAMIDE], the affinity corresponds to a Ki of 4.3 nM.

With `CNC(=S)NCCCCc1cnc[nH]1` [BURIMAMIDE], the Ki turned out to be 70 nM.

`S=C(NCCCc1cnc[nH]1)NC1CCCCC1` returned a Ki of 13 nM.
